Source: ChEMBL document CHEMBL1201862, “PubChem BioAssay data set” (2004)
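How tested: cells in 96-well plates exposed to compound for 48 hours at five concentrations. At the GI50, growth is halved.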 Activity calls are given as the source filed them. No stated cut-off is given here; in the data, active = GI50 up to about 1.1 µM and inactive = higher.

What was measured:
Experiment in all cases: NCI tumour cell line growth inhibition, 48 h
A549 = test system: A549
BT-549 = test system: BT-549
CAKI-1 = test system: CAKI-1
DU-145 = test system: DU-145
HL-60 = test system: HL-60
Hs-578T = test system: Hs-578T
IGROV-1 = test system: IGROV-1
KM12 = test system: KM12
M14 = test system: M14
MDA-MB-231 = test system: MDA-MB-231
MDA-MB-435 = test system: MDA-MB-435
NCI-H226 = test system: NCI-H226
NCI/ADR-RES = test system: NCI/ADR-RES
SK-MEL-5 = test system: SK-MEL-5
SN12C = test system: SN12C
SR = test system: SR
T47D = test system: T47D
UACC-257 = test system: UACC-257
UACC-62 = test system: UACC-62
UO-31 = test system: UO-31

| Structure (SMILES) | GI50 (A549) | GI50 (BT-549) | GI50 (CAKI-1) | GI50 (DU-145) | GI50 (HL-60) | GI50 (Hs-578T) | GI50 (IGROV-1) | GI50 (KM12) | GI50 (M14) | GI50 (MDA-MB-231) | GI50 (MDA-MB-435) | GI50 (NCI-H226) | GI50 (NCI/ADR-RES) | GI50 (SK-MEL-5) | GI50 (SN12C) | GI50 (SR) | GI50 (T47D) | GI50 (UACC-257) | GI50 (UACC-62) | GI50 (UO-31) |
| --- | --- | --- | --- | --- | --- | --- | --- | --- | --- | --- | --- | --- | --- | --- | --- | --- | --- | --- | --- | --- |
| O=C1C=C(NCC(c2ccccc2)c2ccccc2)C(=O)c2ncccc21 | 0.668 µM (active) | 1.06 µM (active) | 2.4 µM (inactive) | 1.96 µM (inactive) | 1.15 µM (inactive) | 2.63 µM (inactive) | 1.38 µM (inactive) | 2.19 µM (inactive) | 1.61 µM (inactive) | 2.67 µM (inactive) | 1.35 µM (inactive) | 3.1 µM (inactive) | 2.49 µM (inactive) | 0.427 µM (active) | 2.1 µM (inactive) | 1.63 µM (inactive) | 3.08 µM (inactive) | 0.877 µM (active) | 1.39 µM (inactive) | 1.11 µM (active) |
| C=CC(OC(C)=O)c1ccc(OC(=O)C(C)C)c(OC)c1 (stereo not given) | 18.8 µM (inactive) | 6.79 µM (inactive) | 1.77 µM (inactive) | 11.5 µM (inactive) | 2.79 µM (inactive) | 6.64 µM (inactive) | 12.9 µM (inactive) | 2.67 µM (inactive) | 5.6 µM (inactive) | 4.72 µM (inactive) | 5.73 µM (inactive) | 19.6 µM (inactive) | 10.2 µM (inactive) | 15.3 µM (inactive) | 3.63 µM (inactive) | 2.49 µM (inactive) | 2.86 µM (inactive) | 9.86 µM (inactive) | 13.3 µM (inactive) | 3.44 µM (inactive) |
| Cc1occc1C(=S)Nc1ccc(Cl)c(/C=N/OC(C)(C)C)c1 | 16.6 µM (inactive) | 17.6 µM (inactive) | 17.2 µM (inactive) | 19.7 µM (inactive) | 17.3 µM (inactive) | 19.8 µM (inactive) | 23.8 µM (inactive) | 15.3 µM (inactive) | 18.2 µM (inactive) | 19.7 µM (inactive) | 16.6 µM (inactive) | 16.9 µM (inactive) | 14.7 µM (inactive) | 17.3 µM (inactive) | 15.1 µM (inactive) | 12.9 µM (inactive) | 16.5 µM (inactive) | 16.7 µM (inactive) | 14.3 µM (inactive) | 13.9 µM (inactive) |
| CCc1ccc(CCC(=O)O)nc1 | > 100 µM (inactive) | > 100 µM (inactive) | > 100 µM (inactive) | > 100 µM (inactive) | > 100 µM (inactive) | > 100 µM (inactive) | > 100 µM (inactive) | > 100 µM (inactive) | > 100 µM (inactive) | > 100 µM (inactive) | > 100 µM (inactive) | > 100 µM (inactive) | > 100 µM (inactive) | > 100 µM (inactive) | > 100 µM (inactive) | > 100 µM (inactive) | > 100 µM (inactive) | > 100 µM (inactive) | > 100 µM (inactive) | > 100 µM (inactive) |
| C(=C\c1cccs1)/c1cccc(/C=C/c2cccs2)n1 | 60.7 µM (inactive) | 22 µM (inactive) | > 100 µM (inactive) | > 100 µM (inactive) | > 100 µM (inactive) | 2.58 µM (inactive) | 50 µM (inactive) | 4.3 µM (inactive) | > 100 µM (inactive) | > 100 µM (inactive) | > 100 µM (inactive) | > 100 µM (inactive) | > 100 µM (inactive) | > 100 µM (inactive) | 61 µM (inactive) | 32.4 µM (inactive) | 6.14 µM (inactive) | > 100 µM (inactive) | > 100 µM (inactive) | 30.3 µM (inactive) |
| Nc1nc(Cl)c(N)c(NCC2(CO)CC2)n1 | > 100 µM (inactive) | > 100 µM (inactive) | > 100 µM (inactive) | > 100 µM (inactive) | > 100 µM (inactive) | > 100 µM (inactive) | > 100 µM (inactive) | > 100 µM (inactive) | > 100 µM (inactive) | > 100 µM (inactive) | > 100 µM (inactive) | > 100 µM (inactive) | > 100 µM (inactive) | > 100 µM (inactive) | > 100 µM (inactive) | > 100 µM (inactive) | > 100 µM (inactive) | > 100 µM (inactive) | > 100 µM (inactive) | > 100 µM (inactive) |
